Consider two molecules from PMC6817880, “Biochemical and Structural Insights Concerning Triclosan Resistance in a Novel YX7K Type Enoyl-Acyl Carrier Protein Reductase from Soil Metagenome” (Scientific Reports, 2019).

The test system of the assay is T1, FabI2 ENR (metagenomic YX7K type enoyl-acyl carrier protein reductase).
T1 construct: fabI2 gene in pET-30b(+) (BamHI/SalI), vector pAF1-5; His-tag fusion protein from E. coli BL21(DE3), tag cleavage not mentioned
As to the kind of experiment: spectrophotometric NADH oxidation at […] nm, Michaelis-Menten fit. The assay is classed as biochemical, uncultured bacterium. As to conditions: 100 nM enzyme, 100 mM sodium phosphate pH 7.0, 25 °C.

Take `NC(=O)C1=CN([C@@H]2O[C@H](COP(=O)(O)OP(=O)(O)OC[C@H]3O[C@@H](n4cnc5c(N)ncnc54)[C@H](O)[C@@H]3O)[C@@H](O)[C@H]2O)C=CC1` [NADH]: the Km (60 µM crotonyl-CoA) amounted to 18.2 µM.
Take `C/C=C/C(=O)SCCNC(=O)CCNC(=O)[C@H](O)C(C)(C)COP(=O)(O)OP(=O)(O)OC[C@H]1O[C@@H](n2cnc3c(N)ncnc32)[C@H](O)[C@@H]1OP(=O)(O)O` [crotonyl-CoA]: the Km (200 µM NADH) is 13.8 µM.

As usually defined, the Km is the substrate concentration at which the rate is half of its maximum.
